Assay results taken from ChEMBL document CHEMBL4706513, “New insight into 20(S)-ginsenoside Rh2 against T-cell acute lymphoblastic leukemia associated with the gut microbiota and the immune system” (2020).
Activity calls are given as the source filed them. The rule behind the calls is not given here.

What was measured:
[1] = test system: Mus musculus; assay: Inhibition of intestinal dysbiosis in SCID/NOD mouse xenografted with human Jurkat cells assessed as decrease in abundance of Alistipes in cecum at 40 mg/kg, po administered once a day for 3 weeks by multiplexed 16S rRNA gene sequencing analysis; assay type: functional, organism-based; conditions: dose 40.0 mg/kg/day
[2] = test system: Mus musculus; assay: Induction of intestinal homeostasis in SCID/NOD mouse xenografted with human Jurkat cells assessed as decrease of enlargement of epithelial cells and infiltration of inflammatory cells in the colon at 40 mg/kg, po administered once a day for 3 weeks by Hand E staining based microscopic analysis; assay type: functional, organism-based; conditions: dose 40.0 mg/kg/day
[3] = test system: Mus musculus; assay: Inhibition of intestinal inflammation in SCID/NOD mouse xenografted with human Jurkat cells assessed as increase in IL-10 level in colon at 40 mg/kg, po administered once a day for 3 weeks by ELISA; assay type: functional, organism-based; conditions: dose 40.0 mg/kg/day
[4] = test system: Mus musculus; assay: Inhibition of intestinal dysbiosis in SCID/NOD mouse xenografted with human Jurkat cells assessed as increase in abundance of Lactobacillus in cecum at 40 mg/kg, po administered once a day for 3 weeks by multiplexed 16S rRNA gene sequencing analysis; assay type: functional, organism-based; conditions: dose 40.0 mg/kg/day
[5] = test system: Mus musculus; assay: Inhibition of spleen infiltration in SCID/NOD mouse xenografted with human Jurkat cells assessed as decrease in CD3 expression in spleen at 40 mg/kg, po once a day for 3 weeks by immunohistochemical staining method; assay type: functional, organism-based; conditions: dose 40.0 mg/kg/day
[6] = test system: Mus musculus; assay: Induction of immune response in SCID/NOD mouse xenografted with human Jurkat cells assessed as decrease in IL-6 level in spleen at 40 mg/kg, po administered once a day for 3 weeks by ELISA reader method; assay type: functional, organism-based; conditions: dose 40.0 mg/kg/day
[7] = test system: Jurkat; assay: Antitumour activity against human Jurkat cells xenografted in SCID/NOD mouse assessed as proportion of CD3-positive cells in peripheral blood at 40 mg/kg, po administered once a day for 3 weeks by immunophenotyping based flow cytometry method (reference value: 18.81%); assay type: functional; conditions: dose 40 mg/kg/day
[8] = test system: Mus musculus; assay: Induction of immune response in SCID/NOD mouse xenografted with human Jurkat cells assessed as increase in IFN-gamma level in spleen at 40 mg/kg, po administered once a day for 3 weeks by ELISA reader method; assay type: functional, organism-based; conditions: dose 40.0 mg/kg/day
[9] = test system: Mus musculus; assay: Induction of intestinal homeostasis in SCID/NOD mouse xenografted with human Jurkat cells assessed as upregulation of ZO-1 mRNA levels in colon at 40 mg/kg, po administered once a day for 3 weeks by real time RT-PCR analysis; assay type: functional, organism-based; conditions: dose 40.0 mg/kg/day
[10] = test system: Mus musculus; assay: Induction of intestinal homeostasis in SCID/NOD mouse xenografted with human Jurkat cells assessed as upregulation of claudin-1 mRNA levels in colon at 40 mg/kg, po administered once a day for 3 weeks by real time RT-PCR analysis; assay type: functional, organism-based; conditions: dose 40.0 mg/kg/day
[11] = test system: Mus musculus; assay: Induction of intestinal homeostasis in SCID/NOD mouse xenografted with human Jurkat cells assessed as decrease in disordered arrangement of epithelial cells in the colon at 40 mg/kg, po administered once a day for 3 weeks by AB-PAS staining based microscopic analysis; assay type: functional, organism-based; conditions: dose 40.0 mg/kg/day
[12] = test system: Mus musculus; assay: Inhibition of intestinal dysbiosis in SCID/NOD mouse xenografted with human Jurkat cells assessed as increase in abundance of Bacteroidetes in cecum at 40 mg/kg, po administered once a day for 3 weeks by multiplexed 16S rRNA gene sequencing analysis; assay type: functional, organism-based; conditions: dose 40.0 mg/kg/day
[13] = test system: Mus musculus; assay: Inhibition of intestinal dysbiosis in SCID/NOD mouse xenografted with human Jurkat cells assessed as decrease in abundance of Firmicutes in cecum at 40 mg/kg, po administered once a day for 3 weeks by multiplexed 16S rRNA gene sequencing analysis; assay type: functional, organism-based; conditions: dose 40.0 mg/kg/day
[14] = test system: Mus musculus; assay: Induction of immune response in SCID/NOD mouse xenografted with human Jurkat cells assessed as increase in NK cells in spleen at 40 mg/kg, po administered once a day for 3 weeks by ELISA reader method; assay type: functional, organism-based; conditions: dose 40.0 mg/kg/day
[15] = test system: Jurkat; assay: Antitumour activity against human Jurkat cells xenografted in SCID/NOD mouse assessed as increase in body weight at 40 mg/kg, po administered once a day for 3 weeks; assay type: functional, organism-based; conditions: dose 40.0 mg/kg/day
[16] = test system: Mus musculus; assay: Inhibition of intestinal dysbiosis in SCID/NOD mouse xenografted with human Jurkat cells assessed as increase in abundance of Verrucomicrobia in cecum at 40 mg/kg, po administered once a day for 3 weeks by multiplexed 16S rRNA gene sequencing analysis; assay type: functional, organism-based; conditions: dose 40.0 mg/kg/day
[17] = test system: Mus musculus; assay: Induction of immune response in SCID/NOD mouse xenografted with human Jurkat cells assessed as increase in IL-2 level in spleen at 40 mg/kg, po administered once a day for 3 weeks by ELISA reader method; assay type: functional, organism-based; conditions: dose 40.0 mg/kg/day
[18] = test system: Mus musculus; assay: Inhibition of spleen infiltration in SCID/NOD mouse xenografted with human Jurkat cells assessed as reduction in spleen index at 40 mg/kg, po administered once a day for 3 weeks; assay type: functional, organism-based; conditions: dose 40.0 mg/kg/day
[19] = test system: Mus musculus; assay: Inhibition of intestinal inflammation in SCID/NOD mouse xenografted with human Jurkat cells assessed as decrease in TNFalpha level in colon at 40 mg/kg, po administered once a day for 3 weeks by ELISA; assay type: functional, organism-based; conditions: dose 40.0 mg/kg/day
[20] = test system: Mus musculus; assay: Inhibition of intestinal inflammation in SCID/NOD mouse xenografted with human Jurkat cells assessed as decrease in MYD88 expression in colon at 40 mg/kg, po administered once a day for 3 weeks by Western blot analysis; assay type: functional, organism-based; conditions: dose 40.0 mg/kg/day
[21] = test system: Mus musculus; assay: Inhibition of intestinal inflammation in SCID/NOD mouse xenografted with human Jurkat cells assessed as decrease in IL1beta level in colon at 40 mg/kg, po administered once a day for 3 weeks by ELISA; assay type: functional, organism-based; conditions: dose 40.0 mg/kg/day
[22] = test system: Mus musculus; assay: Induction of intestinal homeostasis in SCID/NOD mouse xenografted with human Jurkat cells assessed as increase in Reg3g expression in colon at 40 mg/kg, po administered once a day for 3 weeks by Western blot analysis; assay type: functional, organism-based; conditions: dose 40.0 mg/kg/day
[23] = test system: Mus musculus; assay: Induction of intestinal homeostasis in SCID/NOD mouse xenografted with human Jurkat cells assessed as increase in Reg3b expression in colon at 40 mg/kg, po administered once a day for 3 weeks by Western blot analysis; assay type: functional, organism-based; conditions: dose 40.0 mg/kg/day
[24] = test system: Jurkat; assay: Antitumour activity against human Jurkat cells xenografted in SCID/NOD mouse assessed as decrease in expression of CD3 in bone marrow at 40 mg/kg, po administered once a day for 3 weeks by immunohistochemical staining method; assay type: functional, organism-based; conditions: dose 40.0 mg/kg/day

CC(C)=CCC[C@](C)(O)[C@H]1CC[C@]2(C)[C@@H]1[C@H](O)C[C@@H]1[C@@]3(C)CC[C@H](O[C@@H]4O[C@H](CO)[C@@H](O)[C@H](O)[C@H]4O)C(C)(C)[C@@H]3CC[C@]12C [GINSENOSIDE RH2]
inhibition [1]: Active | Activity [2]: Active | inhibition [3]: Active | inhibition [4]: Active | inhibition [5]: Active | Activity [6]: Active | Activity [7]: 5.78% | Activity [8]: Active | Activity [9]: Active | Activity [10]: Active | Activity [11]: Active | inhibition [12]: Active | inhibition [13]: Active | Activity [14]: Active | Activity [15]: Active | inhibition [16]: Active | Activity [17]: Active | inhibition [18]: Active | inhibition [19]: Active | inhibition [20]: Active | inhibition [21]: Active | Activity [22]: Active | Activity [23]: Active | Activity [24]: Active
